2 compounds from patent US20250275964A1, “METHODS OF INHIBITING LIVER-TYPE GLUTAMINASE, GLS2” (CORNELL UNIVERSITY, priority 2019, published 2025) can be followed below.

One test has as its system MDA-MB-231 cells. As to the kind of experiment: 6-day cell proliferation assay, MDA-MB-231. It counts as cell-based, human. How it is done: Human breast cancer cell lines MCF7, BT-474, T-47D, MDA-MB-453, MDA-MB-231, Hs 578T, HCC38, SK-BR-3, and DU4475 were purchased from the American Type Culture Collection (ATCC) and no additional cell authentication was performed. The TSE human breast cancer cell line was supplied by Dr. Steven Abcouwer (University of Michigan). All breast cancer cells were cultured at 37° C. under a 5% CO2 atmosphere in RPMI 1640 medium containing 2 mM glutamine (Gibco) and supplemented with 10% fetal bovine serum (FBS) (Gibco). The 293T cell line (ATCC) used for generating lentivirus particles was cultured as above but using DMEM, high glucose (Gibco).
Culture medium was added to 12-well plates (1 ml/well) and wells were seeded with cells at Day 0 as follows. MCF7, T-47D, BT-474, HCC38 cells: […] cells/well. MDA-MB-453 and MDA-MB-231 cells: 1×10^4 cells/well. TSE and Hs 578T cells: 0.3×10^4 cells/well. After 16 hours, culture medium was replaced with fresh medium supplemented with appropriate concentrations of inhibitors and was subsequently replaced every 48 hours. On Day 6 cells were trypsinized and suspended in an appropriate volume of culture medium, and the total number of cells per well was determined using a hemocytometer or a TC20 Automated Cell Counter (Bio-Rad).

For test [1], the system named is glutamine-mediated TCA cycle anaplerosis in breast cancer cells. The test is described as follows: [U-13C]-glutamine labeling and metabolite analysis. It counts as cell-based, human. How it is done: The procedures for metabolite extraction from cultured cells are described in previous studies (Cluntun et al., “The Rate of Glycolysis Quantitatively Mediates Specific Histone Acetylation Sites,” Cancer Metab. 3:10 (2015); Liu et al., “A Strategy for Sensitive, Large Scale Quantitative Metabolomics,” J. Vis. Exp. e51358-e51358 (2014), which are hereby incorporated by reference in their entirety). Briefly, adherent cells were grown in 6-well plates in biological triplicate to 80% confluence, medium was rapidly aspirated and cells were washed with cold PBS on ice. Then, 1 ml of extraction solvent (80% methanol/water) cooled to −80° C. was added to each well, and the dishes were transferred to −80° C. for 15 min. Cells were then scraped into the extraction solvent on dry ice. All metabolite extracts were centrifuged at 20,000×g at 4° C. for 10 min. Finally, the solvent in each sample was evaporated in a Speed Vacuum. The cell extracts were dissolved in 15 μl water and 15 μl methanol/acetonitrile (1:1 v/v) (LC-MS optima grade, Thermo Fisher Scientific). Samples were centrifuged at 20,000×g for 10 min at 4° C. and the supernatants were transferred to Liquid Chromatography (LC) vials. The injection volume for polar metabolite analysis was 8 μl.
Cells were grown to 80% confluence in 6-well plates with standard culture medium and washed with sterile PBS. Then, culture medium in which glutamine was replaced by [^13C5]-L-glutamine (Cambridge Isotope Laboratories), supplemented with dialyzed FBS (Gibco) and appropriate concentrations of inhibitors was added (1.5 ml/well). At the appropriate time-point, metabolites were extracted as described above.
A hydrophilic interaction liquid chromatography method (HILIC) with an Xbridge amide column (100×2.1 mm, 3.5 μm) (Waters) was employed on a Dionex (Ultimate 3000 UHPLC) for compound separation and detection at room temperature. The mobile phase A was 20 mM ammonium acetate and 15 mM ammonium hydroxide in water with 3% acetonitrile, pH 9.0, and the mobile phase B was acetonitrile. The linear gradient was as follows: 0 min, 85% B; 1.5 min, 85% B, 5.5 min, 35% B; 10 min, 35% B, 10.5 min, 35% B, 14.5 min, 35% B, 15 min, 85% B, and 20 min, 85% B. The flow rate was 0.15 ml/min from 0 to 10 min and 15 to 20 min, and 0.3 ml/min from 10.5 to 14.5 min. All solvents were LCMS grade and purchased from Thermo Fisher Scientific.
The Q Exactive MS (Thermo Scientific) is equipped with a heated electrospray ionization probe (HESI), and the relevant parameters are as listed: evaporation temperature, 120° C.; sheath gas, 30; auxiliary gas, 10; sweep gas, 3; spray voltage, 3.6 kV for positive mode and 2.5 kV for negative mode. Capillary temperature was set at 320° C., and S-lens was 55. A full scan range from 60 to 900 (m/z) was used. The resolution was set at 70,000. The maximum injection time was 200 ms. Automated gain control (AGC) was targeted at 3,000,000 ions.
Raw data collected from LC-Q Exactive MS were processed on Sieve 2.0 (Thermo Scientific) and ToxID 2.0 (Thermo Scientific). Peak alignment and detection were performed according to the protocol described by Thermo Scientific. For targeted metabolite analysis, the method ‘peak alignment and frame extraction’ was applied. An input file of theoretical m/z and detected retention time of 204 known metabolites was used for targeted metabolites analysis with data collected in positive mode, while a separate input file of 278 metabolites was used for negative mode. M/Z width was set at 10 ppm. The output file including detected m/z and relative intensity in different samples was obtained after data processing. The quantity of the metabolite fraction analyzed was adjusted to the corresponding protein concentration and cell count upon processing a parallel 6-well plate. Quantitation and statistics were calculated and visualized with Microsoft Excel, MORPHEUS and MetaboAnalyst online software.

[2] abbreviates: MDA-MB-231 (parental), compared with GLS2 clones, 6 days.
Setting [3] is: MDA-MB-231, proliferation over 6 days.

For the compound `O=C(Cc1ccccc1)Nc1nnc(CCSCCc2nnc(NC(=O)Cc3ccccc3)s2)s1` [BPTES], the EC50 in the test with MDA-MB-231 cells (setting [2]) came to 2 µM; in the test with MDA-MB-231 cells (setting [3]), 2.1 µM. Moreover, the “supply of glutamine-derived carbon to glutamate and the TCA cycle” value is “potently inhibited” in test [1] (Hs 578T, 10 μM) and “potently inhibited” in test [1] (MDA-MB-231, 10 μM). The glutamine anaplerosis result in test [1] (MCF7, 10 μM) is “partially blocked”. The glutamine-mediated anaplerosis result in test [1] (MDA-MB-453, 10 μM) is “no impact”.
Consider `CN(C)c1ccc(C2Nc3ccc4ccccc4c3C3=C2C(=O)CC(C)(C)C3)cc1Br` (centres unmarked) [Compound 968], for which the results for the concentration for a half-maximal effect (EC50) in the test on MDA-MB-231 cells (setting [2]) and in the test with MDA-MB-231 cells (setting [3]) were 4 µM and 5 µM, respectively. The “anaplerosis effect compared between cell lines” value in test [1] (10 μM, MDA-MB-453 versus MDA-MB-231) was “more pronounced in MDA-MB-453 cells than MDA-MB-231 cells”. Besides, the “total abundance of TCA cycle intermediates” value in test [1] (MDA-MB-231 and MDA-MB-453, 10 μM, different periods of time) is “decreased”. For the same compound, the “glutamine-mediated TCA cycle anaplerosis” value in test [1] (basal- and luminal-subtype cells, 10 μM, 10, 24 and 72 hours) was “time-dependent inhibition”.

As usually defined, the EC50 is the concentration needed to bring the measured effect to its halfway point.
